Test results reported in patent US20030072710A1, “Individualization of therapy with antidepressants” (McGill University, priority 2001, published 2003).
Read-outs that look alike come from different tables or passages of the source. Marks after values point to notes of the source that are not given here.

Legend:
1X-Ab = test: Competitive antigen ELISA, cross-reactivity of 1X-Ab; assay type: binding, rabbit; conditions: for % Cross-Reaction 1X-Ab: competitive antigen ELISA, 0 = absence of inhibition or inhibition no higher than 40% at highest concentration tested (5×10^−3 M)
Description: (§1) Buffers and water without additives are filtered through millipore filters and kept for 1 week. BSA, antibodies, Tween™ 20 and horse radish peroxidase conjugates are added to these buffers and water just prior to use. Urine samples are usually collected 4 hours after drinking a cup of coffee (instant or brewed with approximately 100 mg of caffeine per cup) and stored at −80° C. The urine samples are diluted 10 times with sodium phosphate buffer (620 mosm, pH 7.50) and are subsequently diluted with water to give concentrations of AAMU and 1X no higher than 3×10^−6 M in the ELISA. All the pipettings are done with an eight-channel pipette, except those of the antibody and sample solutions. Starting with the last well, 100 μL of a carbonate buffer (100 mM, pH 9.6) containing 2.5 μg mL-1 antibodies are added to each well. After 90 min. at room temperature, the wells are washed three times with […] of TPB: isotonic sodium phosphate buffer (310 mosm, pH 7.50) containing 0.05% Tween™ 20.
(§2) After the initial wash, unoccupied sites are blocked by incubation for 90 min. at room temperature with 100 μL TBP containing 3% BSA. The wells are washed four times with 100 μL TPB. […] The microplate is gently shaken with an orbital shaker at room temperature for 3-4 hours. The wells are washed three times with 100 μL TPB containing 1% BSA and three times with water containing 0.05% Tween™ 20. To the washed plate is added 150 μL of a substrate buffer composed of citric acid (25 mM) and sodium phosphate dibasic buffer (50 mM, pH 5.0) containing 0.06% hydrogen peroxide and 0.04% o-phenylenediamine hydrochloride.
(§3) Buffers and water without additives were filtered through millipore filters and kept for 1 week. BSA, antibodies, Tween™ 20 and horse radish peroxidase conjugates were added to these buffers and water just prior to use. Urine samples were usually collected 4 hours after drinking a cup of coffee (instant or brewed with approximately 100 mg of caffeine per cup) and stored at −80° C. They were diluted 10 times with sodium phosphate buffer (620 mosm, pH 7.50) and were subsequently diluted with water to give concentrations of AAMU and 1X no higher than 3×10^−6 M in the ELISA. All the pipettings were done with an eight-channel pipette, except those of the antibody and sample solutions. Starting with the last well, 100 μL of a carbonate buffer (100 mM, pH 9.6) containing 2.5 μg mL-1 antibodies was pipetted. After 90 min. at room temperature, the wells were washed three times with 100 μL of TPB: isotonic sodium phosphate buffer (310 mosm, pH 7.50) containing 0.05% Tween™ 20.
(§4) After the initial wash, unoccupied sites were blocked by incubation for 90 min. at room temperature with 100 μL TBP containing 3% BSA. The wells were washed four times with 100 μL TPB. […] The microplate was gently shaken with an orbital shaker at room temperature for 3-4 hours. The wells were washed three times with 100 μL with TPB containing 1% BSA and three times with water containing 0.05% Tween™ 20. To the washed plate was added 150 μL of a substrate buffer composed of citric acid (25 mM) and sodium phosphate dibasic buffer (50 mM, pH 5.0) containing 0.06% hydrogen peroxide and 0.04% o-phenylenediamine hydrochloride. After 20 min. at room temperature with shaking, the reaction was stopped with 50 μL of 2.5 N HCl.
(§5) The cross reactivities of AAMU-Ab and 1X-Ab were tested using a wide variety of caffeine metabolites and structural analogs (Table 5 below).

AAMU-Ab = test: Competitive antigen ELISA, cross-reactivity of AAMU-Ab; assay type: binding, rabbit; conditions: for % Cross-Reaction AAMU-Ab: competitive antigen ELISA, 0 = absence of inhibition or inhibition no higher than 40% at highest concentration tested (5×10^−3 M)
Description: as §1, §2, §3, §4, §5

[1] = cited from earlier work

Structure (SMILES)	% Cross-Reaction 1X-Ab (1X-Ab)	% Cross-Reaction AAMU-Ab (AAMU-Ab)	IC50 (1X-Ab; read-out: concentration required for 50% inhibition in the competitive antigen ELISA, 1X-Ab)	IC50 (AAMU-Ab; read-out: concentration required for 50% inhibition in the competitive antigen ELISA, AAMU-Ab)	adverse reactions to dapsone ([1]; fast acetylators)	adverse reactions to dapsone ([1]; slow acetylators)
O=c1cc[nH]c(=O)[nH]1 [Uracil]	0%	0%				
Cn1c(=O)[nH]c2[nH]c(=O)[nH]c2c1=O [1-Methyluric acid]	11%	0%				
Cn1cnc2c1c(=O)[nH]c(=O)n2C [3,7-Dimethyl Xanthine (Theobromine), 3,7-Dimethyl Xanthine]	0%	0%				
Cn1c(=O)[nH]c2nc[nH]c2c1=O [1-Methyl Xanthine (1X), 1-Methyl Xanthine]	100%	0%	10 µM			
CC(=O)Nc1c(N)n(C)c(=O)n(C)c1=O [5-Acetamino-6-amino-1,3-dimethyluracil]	0%	0%				
CC(=O)Nc1c(N)[nH]c(=O)[nH]c1=O [5-Acetamino-6-amino-uracil]	0%	0.6%				
O=c1[nH]c(=O)c2[nH]cnc2[nH]1 [Xanthine]	0%	0^a %				
CC(=O)Nc1c(N)n(C)c(=O)[nH]c1=O [5-Acetamino-6-amino-1-methyluracil]	0%	100%		1.5 µM		
Cn1c(=O)[nH]c2ncn(C)c2c1=O [1,7-Dimethyl Xanthine (Paraxanthine), 1,7-Dimethyl Xanthine]	0.5%	0%				
Nc1nc2nc[nH]c2c(=O)[nH]1 [Guanine]	0%	0%				
O=c1[nH]cnc2nc[nH]c12 [Hypoxanthine]	0%	0%				
Cn1c(=O)[nH]c(=O)c2[nH]cnc21 [3-Methyl Xanthine]	0%	0%				
Cn1c(=O)[nH]c2[nH]c(=O)n(C)c2c1=O [1,7-Dimethyluric acid]	0%	0%				
Cn1cnc2[nH]c(=O)[nH]c(=O)c21 [7-Methyl Xanthine]	0%	0%				
Nc1ccc(S(=O)(=O)c2ccc(N)cc2)cc1 [dapsone]					17%	46%
O=c1[nH]c(=O)c2[nH]c(=O)[nH]c2[nH]1 [Uric acid]	0%	0%				
Cn1c(=O)c2[nH]cnc2n(C)c1=O [1,3-Dimethyl Xanthine (Theophylline), 1,3-Dimethyl Xanthine]	0.2%	0%				
Cn1c(=O)c2c(ncn2C)n(C)c1=O [1,3,7-Trimethyl Xanthine (Caffeine), 1,3,7-Trimethyl Xanthine]	0%	0%				
Cc1nc2[nH]c(=O)[nH]c(=O)c2[nH]1 [8-Methyl Xanthine]	0%	0%				
